Measurements published in US20220071210A1, “FUNGICIDAL MIXTURE” (Adama Makhteshim Ltd., priority 2018, published 2022).

Tested on: Ramularia collo-cygni
Assay: Fungicidal control of Ramularia collo-cygni on winter barley (spray treatments, alone and tank mix)
Assay type: in vivo
Conditions: sprayed twice 14 days apart, rate (gr A.I./ha) as in table; for % control observed, 38 Days after 2nd application: untreated severity 85.6%; for % control observed, 44 Days after 2nd application: untreated severity 100%
Experimental: An experiment was conducted to evaluate the fungicidal control of Ramularia collo-cygni on winter barley with a dehydrogenase inhibitor fungicide (fluxapyroxad), and folpet, alone, and in binary mixtures.
The experiments were conducted by applying a commercially available composition of fluxapyroxad (Imtrex®) and folpet (MCW-296 SC) alone or together. The compositions were diluted with water to the stated concentration of the active compound.
The following active ingredients and their mixtures were evaluated: • Fluxapyroxad 90 gr (A.I.)/ha • Folpet 750 gr (A.I.)/ha • Fluxapyroxad+Folpet 90 gr (A.I.)/ha+750 gr (A.I.)/ha
To test for fungicidal control of Ramularia collo-cygni, the winter barley was sprayed with each of the above treatments. Each of the above treatments were applied twice, the 2nd treatment occurring 14 days after the first treatment. The treatments were composed of 4 replicates.
Evaluations were performed at 38 days and 44 days after the second treatment. At these times the severity of the Ramularia collo-cygni was determined. At the time of the 1st evaluation (38 days after the second treatment) the severity of the infection of Ramularia collo-cygni on the winter barley was 85.6%. At the time of the 2nd evaluation (44 days after the second treatment) the severity was 100%.
The visually determined percentages of infected leaf areas may be converted into efficacies in % of the untreated control:
The efficacy (E) is calculated as follows using Abbott's formula: […]
A corresponds to the fungicidal infection of the treated plants in % and B corresponds to the fungicidal infection of the untreated (control) plants in %.
An efficacy of 0 means that the infection level of the treated plants corresponds to that of the untreated control plants; an efficacy of 100 means that the treated plants are not infected.
In the field of agriculture, it is often understood that the term “synergy” is as defined by Colby S. R. in an article entitled “Calculation of the synergistic and antagonistic responses of herbicide combinations” published in the journal Weeds, 1967, 15, p. 20-22. The action expected for a given combination of two active components can be calculated as follows: […]
in which E represents the expected percentage of fungicidal control for the combination of the two fungicides at defined doses (for example equal to x and y respectively), X is the percentage of fungicidal control observed by the compound (I) at a defined dose (equal to x), Y is the percentage of fungicidal control observed by the compound (II) at a defined dose (equal to y). When the percentage of fungicidal control observed for the combination is greater than the expected percentage, there is a synergistic effect.

Compound: Cn1cc(C(=O)Nc2ccccc2-c2cc(F)c(F)c(F)c2)c(C(F)F)n1 [Fluxapyroxad, fluxapyroxad]
- % control observed, 38 Days after 2nd application: 47.1%
- % control observed, 44 Days after 2nd application: 12.2%

Compound: O=C1c2ccccc2C(=O)N1SC(Cl)(Cl)Cl [Folpet, folpet]
- % control observed, 38 Days after 2nd application: 30.3%
- % control observed, 44 Days after 2nd application: 9.7%
